According to US7429482B2, “Screening tools for discovery of novel anabolic agents” (United States of America as represented by the Department …, priority 2005, dated 2008):
“Also recorded” adds a separate entry of the source.

Columns and labels:
human MAFbx promoter = assay: Human MAFbx promoter luciferase reporter assay in C2C12 / C2C12.AR cells; format: cell-based
Excerpt: The reporter genes pMAF3.1, pMAF2.4, pMAF948, pMAF400, and pMAF400-241 express firefly luciferase under the control of promoter regions of the human MAFbx gene and are described in Example 1. The rARC562G vector, encoding rat AR with a C562->G mutation in the first zinc binding module that disrupts binding of AR to DNA was described by Palvimo et al. (Mol Endocrinol 7: 1399-1407, 1993) pAR.4RKM (expressing AR with 4 R/K->M mutations in the nuclear localization sequence that is unable to enter the nucleus) and pAR.ABC (lacking the ligand binding domain) were described by Zhou et al. (J Biol Chem 269: 13115-13123, 1994). The pBabe.puro retroviral backbone described by Morgenstern and Land (Nucleic Acids Res 18: 3587-3596, 1990) was modified by introduction of a Not1 site. The ARE reporter gene expressing firefly luciferase under control of the MMTV hormone response element, and pSP72hAR-1, containing an insert of the full-length cDNA clone of the human AR, were provided by Dr. Diane Robins (University of Michigan). pRL-CMV expressing Renilla luciferase was from Promega (Madison, Wis.).
C2C12 cells (American Type Culture Collection, Manassas, Va.) were maintained in Dulbeco's modified Eagle's Medium (DMEM) containing 10% fetal bovine serum (FBS) and penicillin (100 U/ml)/streptomycin (100 μg/ml) (growth medium). Cells were incubated at 37° C. in humidified air containing 10% CO2. 293T cells (American Type Culture Collection) were maintained in growth medium as above. Transfection was achieved using Lipofectamine-Plus (Invitrogen, Carlsbad, Calif.) using 200 ng total DNA per well.
Cells were seeded into wells of 24-well plates (5×10^5 cells/well) then maintained overnight in DMEM with 10% CDS-FBS. Cells were co-transfected with the various reporter genes and pRL-CMV. Cells were incubated in the transfection mixture overnight, then covered with DMEM supplemented with 10% charcoal-dextran-stripped FBS (CDS-FBS) and either ethanol (EtOH) or hormones dissolved in EtOH. Cells were maintained for an additional 24 hours, at which time both firefly and renilla luciferase activity were determined using the Dual Luciferase Assay (Promega, Madison, Wis.) and a Berthold 96-well plate luminometer. Firefly luciferase activities were normalized relative to renilla luciferase. Ethanol concentrations were less than 0.1%.

human IGF-1 promoter = assay: Human IGF-1 promoter luciferase reporter assay in HepG2 cells; format: cell-based
Excerpt: pREP4.hAR, expressing full length human AR, and pCMV.Sport.β-Gal, expressing β-galactosidase under a CMV promoter, were as described (Zhao et al., Steroids 69: 357-366, 2004). pcDNA5.rGR, expressing rat glucocorticoid receptor, was provided by Dr. Diane Robins (University of Michigan). The rARC562G vector expressing rat AR with a C562G mutation in the DBD, which results in a loss of DNA binding. The IGF-1 reporter genes pOLuc.1630, pOLuc1300, pOLuc926, pOLuc 320 were provided by Dr. Peter Rotwein (Oregon Health & Science University). These reporters expressed firefly luciferase under the control of 320 to 1630 bases upstream of the transcriptional start site of the human IGF-1 promoter as described in (Kim et al., Mol Endocrinol 5: 1964-1972, 1991). pEGX 4T-1 hAR2, expressing GST fused to the N-terminus of AR DNA-binding domain, was provided by Robert J. Matusik, Ph.D. (Vanderbuilt University Medical Center). pRL-CMV expressing Renilla luciferase was from Promega (Madison, Wis.).
HepG2 cells (ATCC, Bethesda, Md.) were maintained in Dulbecco's modified Eagle's medium (DMEM), supplemented with 10% fetal bovine serum (FBS) and antibiotics (penicillin 100 U/ml, streptomycin 100 μg/ml). Cells were seeded at 5×10^4 cells/per well into wells of 24-well plates containing DMEM supplemented with 10% charcoal-dextran stripped FBS (CDS-FBS). The next day, cells were transfected with a total of 300 ng DNA per well using Lipofectamine Plus (Invitrogen) with plasmids as indicated in the figure legends. Three hours after transfection, cells were covered with DMEM supplemented with 10% CDS-FBS and either hormone dissolved in ethanol, or ethanol, as indicated in the figures. […] After overnight incubation, activities of firefly and Renilla luciferase were determined using the Dual Luciferase Assay system (Promega).
Reporter plasmids expressing firefly luciferase under the control of upstream regions of the IGF-1 promoter were constructed by PCR amplification of segments of interest using primers shown in Table 2, using pOLuc-1630 as a template. The location of each amplified fragment is relative to the transcriptional start site. PCR amplification was conduced using a high fidelity Taq polymerase (Pfx, Invitrogen). PCR products were cloned into pCR2.1-TOPO TA (Invitrogen) and the sequences of the inserts were verified. Inserts were excised with Kpn I and Xho I, and were subcloned into pGL3-Promoter (Promega) at these same sites. PGL3-Promoter expresses firefly luciferase under the control of a minimal promoter.

MAFbx = MAFbx expression in gastrocnemius of rats infused with dexamethasone with or without testosterone (qPCR); format: in vivo; conditions: rat, dexamethasone 0.7 mg/kg/day infusion, 7 days
Description: Muscle was flash frozen on dry ice after excision. Total RNA was isolated by phenol:chloroform extraction (Chomczynski and Sacchi, Anal Biochem 162: 156-159, 1987) and further enriched using RNAeasy minicolumns (Qiagen) with digestion on the column with RNAse-free DNAse (Qiagen).
RNA was quantified by absorbance at 260 nm. One microgram of total RNA was used to prepare cDNA libraries using the High Capacity cDNA Archive Kit (Applied Biosystems, Foster City, Calif.). Libraries were diluted 25-fold with water. Real time PCR was performed using Taqman 2×PCR buffer (Applied Biosystems) and an Applied Biosystems 7500 thermocycler. Data were normalized relative to that for 18S RNA. Relative changes in expression were determined using the 2^−ΔΔCt method. Taqman Assay on Demand probes (Applied Biosystems) were used for all assays except rat 18S RNA, which was quantified using the following […]: Forward: […] (SEQ ID NO:15); Reverse: […] (SEQ ID NO:16); Probe: FAM-[…] (SEQ ID NO:17; Labeled with FAM and non-fluoresent quencher, NFQ, at 5′ and 3′ ends, repsectively).
Male Wistar rats weighing 250 gm were anesthetized with ketamine/xylazine followed by implantation Alzet miniosmotic pumps administering vehicle (propylene glycocol), dexamethasone (0.7 mg/kg/day), or dexamethasone plus testosterone (28 mg/kg/day). […]

MAFbx mRNA = MAFbx mRNA levels in AR6 / C2C12.AR cells (qPCR); format: cell-based, mouse; conditions: dexamethasone overnight
Description: (A) Rats were administered test agents as indicated in the figure for 7-days, at which time animals were sacrificed and MAFbx expression was determined in gastrocnemius muscles by qPCR. Data are mean values±SEM for at least 8 animals. * p<0.05 vs vehicle, t-test. (B) AR6 cells were seeded into 6-well plates and incubated overnight in growth medium. Medium was replaced with DMEM containing 2% horse serum followed by incubation for an additional 48 hours. Hormones or vehicle (EtOH) were added to the medium and cells were incubated overnight, at which time MAFbx mRNA levels were determined by qPCR and expressed as fold-induction versus levels in cells incubated with EtOH. Data are mean values±SEM for three determinations each performed in triplicate. * p<0.05 vs. EtOH (ANOVA). (C) Effect of testosterone on MAFbx mRNA half-life. C2C12.AR cells were incubated overnight in growth medium supplemented with testosterone or vehicle (EtOH). […] Levels of MAFbx mRNA are expressed as a percentage of those at time zero. […]
RNA was quantified by absorbance at 260 nm. […] Relative changes in expression were determined using the 2^−ΔΔCt method. Taqman Assay on Demand probes (Applied Biosystems) were used for all assays except rat 18S RNA, which was quantified using the following Assay on Demand Probes: Forward: […] […]

SMILES: C[C@]12COC(=O)C[C@@H]1CC[C@@H]1[C@@H]2CC[C@@]2(C)[C@H]1CC[C@]2(C)O [oxandrolone]
- suppression of reporter under control of 3.1 of the MAFbx upstream promoter (human MAFbx promoter; C2C12 muscle cells, 5 μM): 15%
- expression of MAFbx reporter (general statement) (human MAFbx promoter; cells transduced with the MAFbx reporter construct): does not decrease; also recorded: less effective
- activation of the upstream promoter of the human IGF-1 gene (human IGF-1 promoter; Hep G2 cells, FIG. 18): does not induce and not

SMILES: C[C@@H]1C[C@H]2[C@@H]3CCC4=CC(=O)C=C[C@]4(C)[C@@]3(F)[C@@H](O)C[C@]2(C)[C@@]1(O)C(=O)CO [dexamethasone]
- increase in luciferase expression of pMAF3.1 reporter (human MAFbx promoter; C2C12.AR cells, dexamethasone): more than 1.5 fold
- increase in expression of MAFbx in gastrocnemius muscle (MAFbx): ~4 fold
- increase in MAFbx mRNA expression (MAFbx mRNA): approximately 3 fold
- activation of reporters incorporating ARE2 or both AREs (p3-13a and p3-32) (human IGF-1 promoter; HepG2 + GR, dexamethasone): 5 fold
- induction of luciferase expression, reporters incorporating ARE1 (p3-230 and p3-22) (human IGF-1 promoter; HepG2 + GR, dexamethasone): less than 2 fold
